Measurements: patent US20100286264A1, “COMPOSITION COMPRISING A NITROOXYDERIVATIVE OF ACETAMINOPHEN AND A ANTICONVULSANT DRUG FOR THE TREATMENT OF NEUROPATHIC PAIN” (Nicox S.A., priority 2008, published 2010)

Tested on: spinal cord neuronal responses from adult male Wistar rats with mononeuropathy
Test: Recording of single motor units: nociceptive responses in rats with mononeuropathy (partial sciatic nerve ligation)
Type: in vivo, rat
Conditions: for Nociceptive responses to noxious mechanical stimulation: i.v., ± S.E.M.
Description: The application routes were intravenous (i.v.). The enhancement of the antinociception was studied by isobolographic analysis. Mononeuropathy was induced under anesthetic regime, seven days before the experiment, using the partial ligation of the sciatic nerve technique. The development of hyperalgesia was assessed by behavioral experiments, studying withdrawal reflex responses evoked by mechanical and thermal stimulation.

SMILES | Nociceptive responses to noxious mechanical stimulation (compound 1 15 μmol/kg alone (gabapentin 0)) | Nociceptive responses to noxious mechanical stimulation (compound 1 30 μmol/kg alone (gabapentin 0)) | Nociceptive responses to noxious mechanical stimulation (compound 1 60 μmol/kg alone (gabapentin 0)) | Nociceptive responses to noxious mechanical stimulation (compound 1 120 μmol/kg alone (gabapentin 0)) | Nociceptive responses to noxious mechanical stimulation (compound 1 240 μmol/kg alone (gabapentin 0)) | Effect on nociceptive responses evoked by noxious mechanical and electrical stimulation (intravenous, mechanical and electrical stimulation) | ID50 for noxious mechanical stimulation (intravenous, rats with mononeuropathy, noxious mechanical stimulation) [µmol/kg] | Nociceptive responses to noxious mechanical stimulation (gabapentin 20 μmol/kg alone) | Nociceptive responses to noxious mechanical stimulation (gabapentin 40 μmol/kg alone) | Nociceptive responses to noxious mechanical stimulation (gabapentin 80 μmol/kg alone) | Nociceptive responses to noxious mechanical stimulation (gabapentin 160 μmol/kg alone) | Nociceptive responses to noxious mechanical stimulation (gabapentin 320 μmol/kg alone)
CC(=O)Nc1ccc(OC(=O)CCCO[N+](=O)[O-])cc1 [Compound 1, 4-(nitrooxy)butanoic acid 4-(N-acetylamino)phenyl ester] | 98 ± 6 percentage of vehicle values | 95 ± 2 percentage of vehicle values | 91 ± 4.5 percentage of vehicle values | 86 ± 5 percentage of vehicle values | 75 ± 9 percentage of vehicle values | dose-dependently reduced the nociceptive responses | 542 ± 5 |  |  |  |  | 
NCC1(CC(=O)O)CCCCC1 [Gabapentin, reference compound] |  |  |  |  |  |  |  | 100 ± 5 percentage of vehicle values | 95 ± 1 percentage of vehicle values | 95 ± 2 percentage of vehicle values | 79 ± 3 percentage of vehicle values | 59 ± 6 percentage of vehicle values
